Experimental data reported in PubChem BioAssay (NCI).
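All cell lines were grown in 96-well plates and treated with compound for 48 hours. GI50: concentration for 50% inhibition of growth. Definition used: TGI = concentration required for complete inhibition of growth.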

Legend:
Test in all cases: NCI tumour cell line growth inhibition, 48 h
OVCAR-4 ovarian = tested on: OVCAR-4 ovarian
HS 578T breast = tested on: HS 578T breast
TK-10 renal = tested on: TK-10 renal
DU-145 prostate = tested on: DU-145 prostate
UO-31 renal = tested on: UO-31 renal
SF-268 CNS = tested on: SF-268 CNS
SK-MEL-5 melanoma = tested on: SK-MEL-5 melanoma
SK-MEL-28 melanoma = tested on: SK-MEL-28 melanoma
M14 melanoma = tested on: M14 melanoma
HCT-15 colon = tested on: HCT-15 colon
BT-549 breast = tested on: BT-549 breast
HOP-62 NSCLC = tested on: HOP-62 NSCLC
SNB-19 CNS = tested on: SNB-19 CNS
LOX IMVI melanoma = tested on: LOX IMVI melanoma
HL-60(TB) leukemia = tested on: HL-60(TB) leukemia
MDA-MB-231 breast = tested on: MDA-MB-231 breast
RXF 393 renal = tested on: RXF 393 renal
SF-295 CNS = tested on: SF-295 CNS
CAKI-1 renal = tested on: CAKI-1 renal
HT29 colon = tested on: HT29 colon
NCI-H23 lung = tested on: NCI-H23 lung
SK-MEL-2 melanoma = tested on: SK-MEL-2 melanoma
SNB-75 CNS = tested on: SNB-75 CNS
NCI/ADR-RES ovarian = tested on: NCI/ADR-RES ovarian
CCRF-CEM leukemia = tested on: CCRF-CEM leukemia
UACC-62 melanoma = tested on: UACC-62 melanoma
PC-3 prostate = tested on: PC-3 prostate
NCI-H522 lung = tested on: NCI-H522 lung
K-562 leukemia = tested on: K-562 leukemia

## COc1ccc(/C=N/NC(=O)c2[nH]c3ccc(Br)cc3c2-c2ccccc2)o1
OVCAR-4 ovarian
  GI50: 265 nM
  TGI: 29.3 µM
HS 578T breast
  GI50: 570 nM
  TGI: 21 µM
TK-10 renal
  GI50: 2260 nM
  TGI: 37.1 µM
DU-145 prostate
  GI50: 307 nM
  TGI: 14.3 µM
UO-31 renal
  GI50: 470 nM
  TGI: 21.5 µM
SF-268 CNS
  GI50: 500 nM
  TGI: 27.8 µM
SK-MEL-5 melanoma
  GI50: 163 nM
  TGI: 391 nM
SK-MEL-28 melanoma
  GI50: 418 nM
  TGI: 15.8 µM
M14 melanoma
  GI50: 299 nM
  TGI: 15.3 µM
HCT-15 colon
  GI50: 219 nM
  TGI: 3.04 µM
BT-549 breast
  GI50: 177 nM
  TGI: 667 nM
HOP-62 NSCLC
  GI50: 467 nM
  TGI: 20.8 µM
SNB-19 CNS
  GI50: 323 nM
  TGI: 19.7 µM
LOX IMVI melanoma
  GI50: 35.4 nM
  TGI: 12.3 µM
HL-60(TB) leukemia
  GI50: 74.8 nM
  TGI: 265 nM
MDA-MB-231 breast
  GI50: 148 nM
  TGI: 2190 nM
RXF 393 renal
  GI50: 1100 nM
  TGI: 17.8 µM
SF-295 CNS
  GI50: 165 nM
  TGI: 2880 nM
CAKI-1 renal
  GI50: 295 nM
  TGI: 21 µM
HT29 colon
  GI50: 66.6 nM
NCI-H23 lung
  GI50: 300 nM
  TGI: 9.9 µM
SK-MEL-2 melanoma
  GI50: 134 nM
  TGI: 9.22 µM
SNB-75 CNS
  GI50: 165 nM
  TGI: 3.53 µM
NCI/ADR-RES ovarian
  GI50: 53.3 nM
  TGI: 2590 nM
CCRF-CEM leukemia
  GI50: 136 nM
  TGI: > 55.2 µM
UACC-62 melanoma
  GI50: 122 nM
  TGI: 13.9 µM
PC-3 prostate
  GI50: 386 nM
  TGI: > 34.4 µM
NCI-H522 lung
  GI50: 21.6 nM
  TGI: 59.2 nM
K-562 leukemia
  GI50: 55 nM
  TGI: > 72.2 µM
